Assay results: patent US7932262B2 (Novartis AG, priority 2006, dated 2011)
Where two headings read alike, the source gives them in different places.

Columns and labels:
PDK1 kinase = molecular target: T1, PDK1 kinase (Homo sapiens, UniProt O15530); assay: PDK1 Kinase Alpha Screen Assay; format: biochemical; settings: read-out: PDK1 IC50
T1 sequence (O15530 1-556): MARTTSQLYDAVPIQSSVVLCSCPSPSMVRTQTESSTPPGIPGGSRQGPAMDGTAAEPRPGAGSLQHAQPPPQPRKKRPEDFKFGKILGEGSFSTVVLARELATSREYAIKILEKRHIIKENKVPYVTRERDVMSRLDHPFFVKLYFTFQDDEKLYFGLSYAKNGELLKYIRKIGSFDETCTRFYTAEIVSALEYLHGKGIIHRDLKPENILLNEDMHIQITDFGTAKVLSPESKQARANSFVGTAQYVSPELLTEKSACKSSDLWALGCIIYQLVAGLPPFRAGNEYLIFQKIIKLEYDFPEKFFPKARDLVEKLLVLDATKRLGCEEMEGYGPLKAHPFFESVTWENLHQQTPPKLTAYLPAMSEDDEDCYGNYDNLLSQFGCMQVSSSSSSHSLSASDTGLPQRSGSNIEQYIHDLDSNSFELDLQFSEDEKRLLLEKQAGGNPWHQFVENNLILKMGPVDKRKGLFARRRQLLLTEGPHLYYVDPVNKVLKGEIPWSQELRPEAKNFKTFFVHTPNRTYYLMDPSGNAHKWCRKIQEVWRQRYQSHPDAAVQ
Method in brief: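 AlphaScreen readout: phospho-peptide captured by phospho-(Ser/Thr) PKA substrate antibody (0.3 mg/ml) on protein A acceptor beads, biotin peptide on streptavidin donor beads (25 μg/ml each), overnight at room temperature. Kinase step used 50 nM PDK1-4 peptide, 10 uM ATP, 3-18 hours.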

A2780 cells = assay: Cell Proliferation Assay (Cell Titer Glo), A2780; format: cell-based; settings: Homo sapiens, A2780 cells, read-out: CPEC50 A2780
Method in brief: (§1)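 Following a 3-day compound exposure (37° C., 5% CO2) of A2780 or PC3MM cells plated at 1000 per well, viability was measured by Cell Titer Glo luminescence in fresh medium, read 10 min after reagent addition.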

[1] = system: pAkt308 (phosphorylation of Akt at T308) in PC-3 cells; assay: pAkt T308 ECL Assay in PC-3 cells; format: cell-based; settings: Homo sapiens, 6 h, six hours with compound, read-out: PAKT308 PC3 IC50
Experimental: VI. The pAkt^T308 ECL Assay Protocol
On Day 1, PC-3 cells were seeded at 15,000 cells/well in 100 μL/well ([…]) growth media into black-walled, clear bottom, poly-L-lysine coated plates. The cells were incubated overnight in a 37° C., 5% CO2 incubator.
On Day 2, a MSD ECL plate was blocked for two hours with 150 μL per well of 3% MSD blocker A.
Test compounds were diluted to 500× in DMSO and then were subjected to further serial dilution using a BioMek 2000 instrument. DMSO diluted compounds were then diluted into growth media and then added to the cell plates.
The cell plates incubated with compounds for six hours in a 37° C., 5% CO2 incubator after which the growth medium was removed and 55 μl of MSD lysis buffer was added to cell plates on ice. The plates were lysed on ice for five minutes followed by 15 minutes of vigorous shaking on a plate shaker at 4° C. The blocked MSD assay plates were washed twice with 1×MSD wash buffer followed by the addition of cell lysate as follows: 30 μl of cell lysate was added to the pAkt308 plates and 13 μl of lysate+12 μl lysis buffer was added to the tAkt plates. The plates were then sealed and shaken at 4° C. overnight.
On Day 3, the MSD plates were washed four times with 1×MSD wash buffer then, 25 μl/well of MSD SULFO-TAG antibodies diluted to 10 nM final concentration in 1% blocker. A buffer was added to the antibody diluent which was added to assay plates. The plates were then sealed and incubated at RT for 1.5 hour. The plates were then washed twice with 1×MSD wash buffer followed by the addition of 150 μl/well of 1.5×MSD read buffer. The plates were read immediately after the addition of read buffer using a Trilux instrument. […]

PC-3 cells = assay: Cell Proliferation Assay (Cell Titer Glo), PC-3 cell line; format: cell-based; settings: Homo sapiens
Method in brief: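 Cell Titer Glo luminescence, read after fresh medium replaced the dosing medium, gave viability of PC-3 cells plated at 1000 cells/well. Compounds, 1:3 serially diluted in DMSO at 500× and then in medium, were added after 3-5 h adhesion and incubated 3 days at 37° C.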

PC3MM cells = assay: Cell Proliferation Assay (Cell Titer Glo), PC3MM; format: cell-based; settings: cell proliferation, PC3MM cells; read-out: CPEC50 PC3MM
Method in brief: as §1

[2] = PC-3, 72 h, PC-3 cells, 3 days incubation, read-out: CP EC50 PC3
[3] = PC-3, cell proliferation, PC3 cells, read-out: CPEC50 PC3

| SMILES | IC50 (PDK1 kinase) [µM] | EC50 (A2780 cells; 72 h, 3 days incubation) [µM] | IC50 [1] [µM] | EC50 (PC-3 cells; [2]) [µM] | IC50 (PDK1 kinase; PDK1 Kinase Alpha Screen Assay) [µM] | EC50 (A2780 cells; cell proliferation) [µM] | EC50 (PC3MM cells) [µM] | EC50 (PC-3 cells; [3]) [µM] |
| --- | --- | --- | --- | --- | --- | --- | --- | --- |
| O=S(=O)(c1cccc(Nc2ncc3cccc(OC4CCNCC4)c3n2)c1)N1CCOCC1 [Compound 5, [3-(Morpholine-4-sulfonyl)-phenyl]-[8-(piperidin-4-yloxy)-quinazolin-2-yl]-amine] | < 5 | < 5 | 5 to 10 | – | – | – | – | – |
| NS(=O)(=O)c1ccc(Nc2ncc3ccc(-c4cccnc4)c(OC4CCNCC4)c3n2)cc1 [Compound 18, 4-[8-(Piperidin-4-yl-oxy)-7-pyridin-3-yl-quinazolin-2-ylamino]-benzenesulfonamide] | < 5 | < 5 | 5 to 10 | – | – | – | – | – |
| Nc1ccc(-c2ccc3cnc(Nc4ccc(S(N)(=O)=O)cc4)nc3c2OC2CCNCC2)cn1 [Compound 21, 4-[7-(6-Amino-pyridin-3-yl)-8-(piperidin-4-yloxy)-quinazolin-2-ylamino]-benzenesulfonamide] | < 5 | < 5 | 5 to 10 | – | – | – | – | – |
| COc1cncc(-c2ccc3cnc(Nc4ccc(S(N)(=O)=O)cc4)nc3c2OC2CCNCC2)c1 [Compound 23, 4-[7-(5-Methoxy-pyridin-3-yl)-8-(piperidin-4-yloxy)-quinazolin-2-ylamino]-benzenesulfonamlde] | < 5 | < 5 | 5 to 10 | – | – | – | – | – |
| COc1cc(Nc2ncc3ccc(OC4CCNCC4)cc3n2)cc(OC)c1 [Compound 55, (3,5-Dimethoxy-phenyl)-[7-(piperidin-4-yloxy)-quinazolin-2-yl]-amine] | < 5 | – | < 5 | < 5 | – | – | – | – |
| CC(C)NS(=O)(=O)c1ccc(Nc2ncc3ccc(OC4CCN(C(C)C)CC4)cc3n2)cc1 [Compound 58, N-Isopropyl-4-[7-(1-isopropyl-piperidin-4-yloxy)-quinazolin-2-ylamino]-benzenesulfonamide] | < 5 | – | < 5 | < 5 | – | – | – | – |
| Fc1ccc(Nc2ncc3ccc(OC4CCNCC4)cc3n2)cc1 [Compound 59, (4-Fluoro-phenyl)-[7-(piperidin-4-yloxy)-quinazolin-2-yl]-amine] | < 5 | – | < 5 | < 5 | – | – | – | – |
| CNS(=O)(=O)Cc1ccc(Nc2ncc3ccc(OC4CCN(C(C)C)CC4)cc3n2)cc1 [Compound 61, C-{4-[7-(1-Isopropyl-piperidin-4-yloxy)-quinazolin-2-ylamino]-phenyl}-N-methyl-methanesulfonamide] | < 5 | – | < 5 | < 5 | – | – | – | – |
| CC(=O)Nc1ccc(Nc2ncc3ccc(OC4CCNCC4)cc3n2)cc1C [Compound 63, N-{2-Methyl-4-[7-(piperidin-4-yloxy)-quinazolin-2-ylamino]-phenyl}-acetamide] | < 5 | – | < 5 | < 5 | – | – | – | – |
| NS(=O)(=O)c1ccc(Nc2ncc3cc(Br)cc(OC4CN5CCC4CC5)c3n2)cc1 (stereo not drawn) [Compound 847, 4-(6-bromo-8-(quinuclidin-3-yloxy)quinazolin-2-ylamino)benzenesulfonamide] | – | – | – | – | < 5 | < 5 | < 5 | < 5 |

Next, values leading:

| IC50 (PDK1 kinase) [µM] | EC50 (A2780 cells; 72 h, 3 days incubation) [µM] | IC50 [1] [µM] | EC50 (PC-3 cells; [2]) [µM] | IC50 (PDK1 kinase; PDK1 Kinase Alpha Screen Assay) [µM] | EC50 (A2780 cells; cell proliferation) [µM] | EC50 (PC3MM cells) [µM] | EC50 (PC-3 cells; [3]) [µM] | SMILES |
| --- | --- | --- | --- | --- | --- | --- | --- | --- |
| < 5 | – | 5 to 10 | < 5 | – | – | – | – | Nc1ncc(-c2ccc3cnc(Nc4ccc(S(N)(=O)=O)cc4)nc3c2OC2CCNCC2)cc1C(F)(F)F [Compound 68, 4-[7-(6-Amino-5-trifluoromethyl-pyridin-3-yl)-8-(piperidin-4-yloxy)-quinazolin-2-ylamino]-benzenesulfonamide] |
| < 5 | – | 10 to 25 | < 5 | – | – | – | – | CNC(=O)Cc1ccc(Nc2ncc3cccc(OC4CCN(C(C)C)CC4)c3n2)cc1 [Compound 70, 2-{4-[8-(1-Isopropyl-piperidin-4-yloxy)-quinazolin-2-ylamino]-phenyl}-N-methyl-acetamide] |
| < 5 | – | 5 to 10 | < 5 | – | – | – | – | CC(C)NC(=O)Cc1ccc(Nc2ncc3cccc(OC4CCN(C(C)C)CC4)c3n2)cc1 [Compound 71, N-Isopropyl-2-{4-[8-(1-isopropyl-piperidin-4-yloxy)-quinazolin-2-ylamino]-phenyl}-acetamide] |
| < 5 | – | < 5 | < 5 | – | – | – | – | CC(C)N1CCC(Oc2cccc3cnc(Nc4ccc(N5CCOCC5)cc4)nc23)CC1 [Compound 72, [8-(1-Isopropyl-piperidin-4-yloxy)-quinazolin-2-yl]-(4-morpholin-4-yl-phenyl)-amine] |
| < 5 | – | 5 to 10 | < 5 | – | – | – | – | CC(=O)Nc1ccc(Nc2ncc3cccc(OC4CCN(C(C)C)CC4)c3n2)cc1 [Compound 73, N-{4-[8-(1-Isopropyl-piperidin-4-yloxy)-quinazolin-2-ylamino]-phenyl}-acetamide] |
| < 5 | – | < 5 | < 5 | – | – | – | – | CNC(=O)Cc1cccc(Nc2ncc3cccc(OC4CCN(C(C)C)CC4)c3n2)c1 [Compound 77, 2-{3-[8-(1-Isopropyl-piperidin-4-yloxy)-quinazolin-2-ylamino]-phenyl}-N-methyl-acetamide] |
| < 5 | – | < 5 | < 5 | – | – | – | – | CC(=O)Nc1cccc(Nc2ncc3cccc(OC4CCN(C(C)C)CC4)c3n2)c1 [Compound 81] |
| < 5 | – | < 5 | < 5 | – | – | – | – | C#Cc1cc(OC2CCN(C(C)C)CC2)c2nc(Nc3ccc(S(N)(=O)=O)cc3)ncc2c1 [Compound 86, 4-[6-Ethynyl-8-(1-isopropyl-piperidin-4-yloxy)-quinazolin-2-ylamino]-benzenesulfonamide] |
| – | – | – | – | < 5 | < 5 | < 5 | < 5 | COCCNc1ccc(-c2cccc3cnc(Nc4ccc(S(N)(=O)=O)cc4)nc23)cn1 [Compound 825, 4-(8-(6-(2-methoxyethylamlno)pyridin-3-yl)quinazoln-2-ylamino)benzenesulfonamide] |
| – | – | – | – | < 5 | < 5 | < 5 | < 5 | CN1CCN(c2ccc(-c3cccc4cnc(Nc5ccc(S(N)(=O)=O)cc5)nc34)cn2)CC1 [Compound 827, 4-(8-(6-(4-methylpiperazin-1-yl)pyridin-3-yl)quinazolin-2-ylamino)benzenesulfonamide] |
| – | – | – | – | < 5 | < 5 | < 5 | < 5 | NS(=O)(=O)c1ccc(Nc2ncc3cccc(-c4ccc(NCCN5CCCC5)nc4)c3n2)cc1 [Compound 830, 4-(8-(6-(2-(pyrrolidin-1-yl)ethylamino)pyridin-3-yl)-quinazolin-2-ylamino)benzenesulfonamide] |
| – | – | – | – | < 5 | < 5 | < 5 | < 5 | CN1CCC(Nc2ccc3cnc(Nc4ccc(S(N)(=O)=O)cc4)nc3c2)CC1 [Compound 843, 4-(7-(1-methylpiperidin-4-ylamino)quinazolin-2-ylamino)benzenesulfonamide] |
| – | – | – | – | < 5 | < 5 | < 5 | < 5 | NS(=O)(=O)c1ccc(Nc2ncc3cc(Br)cc(OC4CCNCC4)c3n2)cc1 [Compound 846, 4-(6-bromo-8-(piperidin-4-yloxy)quinazolin-2-ylamino)benzenesulfonamide] |
